Consider 16 compounds from patent US12290073B2, “Anti-microbial compound and methods of use” (SHENZHEN UNIVERSITY, priority 2019, dated 2025).

Each structure is given as a SMILES string. Like-named read-outs stand apart in the source and are kept apart here.

Assay in all cases: Anti-microbial rate of finished cotton textiles, FZ/T73023-2006 D.8 shocking method
Common to all, as to assay type: cell-based

Assay [1] deals with Candida Albicans (C. albicans 10231). Conditions: finishing liquid 1.0 wt %; for killing at 1 %: Candida albicans, read-out: Anti-microbial rate (%) of cotton textiles finished with compound E (1.0 wt %), C. albicans. The source says:
(§1) Each of the reaction products (i.e., compound E) according to Examples 1-21 was used to prepare an anti-microbial agent (e.g., a finishing liquid), and the anti-microbial effects were different depending on compound E and conditions of use.
(§2) Remarks: 1) in the data of anti-microbial rate in Table 5: Examples 1-9 used a soaking-rolling-drying process to finish cotton fabric, where the bath ratio (i.e., the ratio of the weight of a liquid containing compound E to the weight of the cotton fabric) was 20:1, the residual liquid ratio was 90%, and the drying process was conducted at 85° C. for 30 minutes; Examples 10-18 were prepared by a soaking-high speed spinning-drying method, where the bath ratio was 20:1, the residual liquid ratio was 90%, and the drying process was conducted at 85° C. for 20 min; Examples 19-21 were prepared by a spraying-spinning-drying process with a bath ratio of 30:1, a residual liquid ratio of 85% after drying, and the drying process was conducted at 105° C. for 5 minutes.
(§3) 2) Table 5 data test method: FZ/T73023-2006 anti-microbial textiles D.8 shocking method. In addition, the inhibition zone method (FZ/T73023-2006 anti-microbial textiles—Appendix E—inhibition zone method) was used to test whether the active compound (E) was released from the finished cotton textiles, the inhibition zone test result of the 21 examples and zwitterions were 0 mm, and thus compound E was not released from the finished cotton textiles. The anti-microbial finishing agent used in the comparative experiment was zwitterion with the molecular structure
(§4) 3) The composition of the finishing liquid in Table 5 was: compound E 1.0 wt %, sodium bicarbonate 1.0 wt %, and the rest of the finishing liquid was water.

In assay [2] the test system is Escherichia Coli (E. coli, ATCC25922). Conditions: for killing at 1 %: Escherichia coli, ATCC25922, finishing liquid 1.0 wt %, read-out: Anti-microbial rate (%) of cotton textiles finished with compound E (1.0 wt %), E. coli; for Anti-microbial rate (%) of cotton textiles finished with compound E (1.0 wt %), E. coli: finishing liquid 1.0 wt %.
Excerpt: as §1, §2, §3, §4

Assay [3] deals with Staphylococcus Aureus (S. aureus, ATCC 6538). Conditions: for killing at 1 %: Staphylococcus aureus, ATCC6538, finishing liquid 1.0 wt %, read-out: Anti-microbial rate (%) of cotton textiles finished with compound E (1.0 wt %), S. aureus; for Anti-microbial rate (%) of cotton textiles finished with compound E (1.0 wt %), S. aureus: finishing liquid 1.0 wt %.
Excerpt: as §1, §2, §3, §4

As for `C[N+](C)(CCCS(=O)(=O)[O-])CCOc1nc(Cl)nc(Cl)n1` [Comparative Experiment, reference compound], the killing at 1 % in assay [1] (times of washing 0) was found to be 95%; in assay [1] (times of washing 10), 78%; in assay [1] (times of washing 50), 69%; in assay [2] (times of washing 0), 99.9%; in assay [2] (times of washing 10) it was 83%; in assay [2] (times of washing 50), 75%. For the same compound, the killing at 1 % in assay [3] (times of washing 0) turned out to be 99.9%; in assay [3] (times of washing 10) it was 86%; in assay [3] (times of washing 50), 80%.

As for `C[N+](C)(C)CCNc1nc(Cl)nc(Cl)n1` [Example 3], the killing at 1 % worked out at 99.9% in assay [1] (times of washing 0); 99.9% in assay [1] (times of washing 10); 99.9% in assay [1] (times of washing 50); 100% in assay [2] (times of washing 0); 99.9% in assay [2] (times of washing 10); 99.2% in assay [2] (times of washing 50). The values for the killing at 1 % in assay [3] (times of washing 0), in assay [3] (times of washing 10) and in assay [3] (times of washing 50) were 100%, 99.9% and 99.9%, respectively.

Consider `C[N+](C)(C)COc1nc(Cl)nc(Cl)n1` [Example 5], for which the killing at 1 % in assay [1] (times of washing 0) was found to be 99.9%; in assay [1] (times of washing 10), 99.9%; in assay [1] (times of washing 50) it was 97.9%; in assay [2] (times of washing 0), 100%; in assay [2] (times of washing 10) it was 99.9%; in assay [2] (times of washing 50), 99.1%. Further, the killing at 1 % in assay [3] (times of washing 0) turned out to be 100%; in assay [3] (times of washing 10), 99.9%; in assay [3] (times of washing 50) it was 99.9%.

On to `CCCCCCCC[N+](C)(C)CC(C)Oc1nc(Cl)nc(Cl)n1` (stereo not drawn) [Example 6], for which the killing at 1 % came out at 99.9% in assay [1] (times of washing 0); 99.9% in assay [1] (times of washing 10); 97.9% in assay [1] (times of washing 50); 100% in assay [2] (times of washing 0); 99.9% in assay [2] (times of washing 10); 99.5% in assay [2] (times of washing 50). Besides, the killing at 1 % in assay [3] (times of washing 0) is 100%; in assay [3] (times of washing 10), 99.9%; in assay [3] (times of washing 50) it was 99.9%.

For the compound `CCCCCCCCCCCCCC[n+]1ccn(CCCNc2nc(C)nc(Cl)n2)c1` [Example 7], the killing at 1 % in assay [1] (times of washing 0) was 99.9%; in assay [1] (times of washing 10), 99.9%; in assay [1] (times of washing 50) it was 98.6%; in assay [2] (times of washing 0) it was 100%; in assay [2] (times of washing 10), 99.9%; in assay [2] (times of washing 50), 99.9%. Also, the results for the killing at 1 % in assay [3] (times of washing 0), in assay [3] (times of washing 10) and in assay [3] (times of washing 50) were 100%, 99.9% and 99.9%, respectively.

Turning to `CCCCCCCCCC[n+]1ccc(CCOc2nc(Cl)nc(Br)n2)cc1` [Example 8], the killing at 1 % in assay [1] (times of washing 0) stood at 99.9%; in assay [1] (times of washing 10), 99.9%; in assay [1] (times of washing 50), 98.9%; in assay [2] (times of washing 0), 100%; in assay [2] (times of washing 10) it was 99.9%; in assay [2] (times of washing 50), 99.5%. The killing at 1 % in assay [3] (times of washing 0) was 100%; in assay [3] (times of washing 10), 99.9%; in assay [3] (times of washing 50), 99.9%.

Regarding `C[n+]1ccc(CNc2nc(Cl)nc([N+](=O)[O-])n2)cc1` [Example 9], the killing at 1 % in assay [1] (times of washing 0) turned out to be 99.9%; in assay [1] (times of washing 10) it was 99.9%; in assay [1] (times of washing 50), 99.2%; in assay [2] (times of washing 0), 100%; in assay [2] (times of washing 10) it was 99.9%; in assay [2] (times of washing 50) it was 99.9%. Further, the killing at 1 % in assay [3] (times of washing 0) stood at 100%; in assay [3] (times of washing 10) it was 99.9%; in assay [3] (times of washing 50), 99.9%.

With `Cc1nc(Cl)nc(OCCn2cc[n+](C)c2)n1` [Example 12], the killing at 1 % in assay [1] (times of washing 0) was 99.9%; in assay [1] (times of washing 10), 99.9%; in assay [1] (times of washing 50) it was 91.9%; in assay [2] (times of washing 0) it was 100%; in assay [2] (times of washing 10), 99.9%; in assay [2] (times of washing 50), 98.9%. Besides, the figures for the killing at 1 % in assay [3] (times of washing 0), in assay [3] (times of washing 10) and in assay [3] (times of washing 50) were 100%, 99.9% and 99.5%, respectively.

For the compound `C[n+]1ccn(CCCCCCCCCCCCCCCCCCOc2nc(Cl)nc(Cl)n2)c1` [Example 13], the killing at 1 % in assay [1] (times of washing 0) was found to be 99.9%; in assay [1] (times of washing 10), 99.9%; in assay [1] (times of washing 50), 98.9%; in assay [2] (times of washing 0), 100%; in assay [2] (times of washing 10) it was 99.9%; in assay [2] (times of washing 50) it was 99.5%. In addition, the values for the killing at 1 % in assay [3] (times of washing 0), in assay [3] (times of washing 10) and in assay [3] (times of washing 50) were 100%, 99.9% and 99.9%, respectively.

`C[n+]1ccn(CCCNc2nc(Cl)nc(Cl)n2)c1` [Example 14]: the killing at 1 % amounted to 99.9% in assay [1] (times of washing 0); 99.9% in assay [1] (times of washing 10); 99.9% in assay [1] (times of washing 50); 100% in assay [2] (times of washing 0); 99.9% in assay [2] (times of washing 10); 99.1% in assay [2] (times of washing 50). Moreover, the killing at 1 % in assay [3] (times of washing 0) stood at 100%; in assay [3] (times of washing 10) it was 99.9%; in assay [3] (times of washing 50), 99.5%.

In the case of `C[n+]1ccc(COc2nc(Cl)nc(Cl)n2)cc1` [Example 15], the killing at 1 % came to 99.9% in assay [1] (times of washing 0); 99.9% in assay [1] (times of washing 10); 92.9% in assay [1] (times of washing 50); 100% in assay [2] (times of washing 0); 99.9% in assay [2] (times of washing 10); 98.9% in assay [2] (times of washing 50). Moreover, the values for the killing at 1 % in assay [3] (times of washing 0), in assay [3] (times of washing 10) and in assay [3] (times of washing 50) were 100%, 99.9% and 99.1%, respectively.

In the case of `CCCCCCCCCCCC[n+]1cc[n+](CCCCCCCCCCCC)c(CCSc2nc(Cl)nc(Cl)n2)c1` [Example 16], the killing at 1 % in assay [1] (times of washing 0) is 99.9%; in assay [1] (times of washing 10), 99.9%; in assay [1] (times of washing 50), 93.6%; in assay [2] (times of washing 0), 100%; in assay [2] (times of washing 10), 99.9%; in assay [2] (times of washing 50) it was 99.8%. Moreover, the killing at 1 % in assay [3] (times of washing 0) stood at 100%; in assay [3] (times of washing 10), 99.9%; in assay [3] (times of washing 50), 99.9%.

For the compound `CCCCCCCCCCCC[N+](C)(C)CCN(CCOc1nc(Cl)nc(Cl)n1)CC[N+](C)(C)CCCCCCCCCCCC` [Example 17], the killing at 1 % in assay [1] (times of washing 0) stood at 99.9%; in assay [1] (times of washing 10) it was 99.9%; in assay [1] (times of washing 50) it was 99.3%; in assay [2] (times of washing 0), 100%; in assay [2] (times of washing 10) it was 99.9%; in assay [2] (times of washing 50), 99.5%. The killing at 1 % amounted to 100% in assay [3] (times of washing 0), 99.9% in assay [3] (times of washing 10) and 99.9% in assay [3] (times of washing 50).

On to `C[N+](C)(C)CCCCCCCCCCCCCCCCCCN(CCCCCCCCCCCCCCCCCC[N+](C)(C)C)CCOc1nc(Cl)nc(Cl)n1` [Example 18], for which the killing at 1 % amounted to 99.9% in assay [1] (times of washing 0); 99.9% in assay [1] (times of washing 10); 96.9% in assay [1] (times of washing 50); 100% in assay [2] (times of washing 0); 99.9% in assay [2] (times of washing 10); 97.9% in assay [2] (times of washing 50). The killing at 1 % in assay [3] (times of washing 0) stood at 100%; in assay [3] (times of washing 10), 99.9%; in assay [3] (times of washing 50), 98.9%.

On to `Clc1nc(Cl)nc(OCCC[P+](c2ccccc2)(c2ccccc2)c2ccccc2)n1` [Example 20], for which the killing at 1 % was determined as 99.9% in assay [1] (times of washing 0); 99.9% in assay [1] (times of washing 10); 92.9% in assay [1] (times of washing 50); 100% in assay [2] (times of washing 0); 99.9% in assay [2] (times of washing 10); 95.9% in assay [2] (times of washing 50). Moreover, the values for the killing at 1 % in assay [3] (times of washing 0), in assay [3] (times of washing 10) and in assay [3] (times of washing 50) were 100%, 99.9% and 97.9%, respectively.

As for `Clc1nc(Cl)nc(OCCC[P+](c2ccccc2)(c2ccccc2)c2ccccc2)n1.[Br-]` [Example 21], the “Anti-microbial rate (%) of cotton textiles finished with compound E (1.0 wt %), C. albicans” value in assay [1] (times of washing 0) was determined as 99.9%; in assay [1] (times of washing 10), 99.9%; in assay [1] (times of washing 50), 93.9%. For the same compound, the “Anti-microbial rate (%) of cotton textiles finished with compound E (1.0 wt %), E. coli” value in assay [2] (times of washing 0) stood at 99.99%; in assay [2] (times of washing 10), 99.9%; in assay [2] (times of washing 50) it was 96.9%. Further, the “Anti-microbial rate (%) of cotton textiles finished with compound E (1.0 wt %), S. aureus” value was found to be 99.99% in assay [3] (times of washing 0), 99.9% in assay [3] (times of washing 10) and 98.9% in assay [3] (times of washing 50).
